ChEMBL document CHEMBL1144186, “New iodoreboxetine analogues for SPECT imaging of the noradrenaline transporter” (Bioorg Med Chem Lett, 2008)

What was measured:
[1] = Displacement of [3H]nisoxetine from rat brain NAT; type: tissue-based
[2] = target: Sodium-dependent serotonin transporter (Rattus norvegicus, UniProt P31652); assay: Displacement of [3H]citalopram from rat brain SERT
[3] = target: Sodium-dependent dopamine transporter (Rattus norvegicus, UniProt P23977); assay: Displacement of [3H]WIN-35428 from rat brain DAT; type: tissue-based
Chain of Sodium-dependent dopamine transporter (P23977 whole entry): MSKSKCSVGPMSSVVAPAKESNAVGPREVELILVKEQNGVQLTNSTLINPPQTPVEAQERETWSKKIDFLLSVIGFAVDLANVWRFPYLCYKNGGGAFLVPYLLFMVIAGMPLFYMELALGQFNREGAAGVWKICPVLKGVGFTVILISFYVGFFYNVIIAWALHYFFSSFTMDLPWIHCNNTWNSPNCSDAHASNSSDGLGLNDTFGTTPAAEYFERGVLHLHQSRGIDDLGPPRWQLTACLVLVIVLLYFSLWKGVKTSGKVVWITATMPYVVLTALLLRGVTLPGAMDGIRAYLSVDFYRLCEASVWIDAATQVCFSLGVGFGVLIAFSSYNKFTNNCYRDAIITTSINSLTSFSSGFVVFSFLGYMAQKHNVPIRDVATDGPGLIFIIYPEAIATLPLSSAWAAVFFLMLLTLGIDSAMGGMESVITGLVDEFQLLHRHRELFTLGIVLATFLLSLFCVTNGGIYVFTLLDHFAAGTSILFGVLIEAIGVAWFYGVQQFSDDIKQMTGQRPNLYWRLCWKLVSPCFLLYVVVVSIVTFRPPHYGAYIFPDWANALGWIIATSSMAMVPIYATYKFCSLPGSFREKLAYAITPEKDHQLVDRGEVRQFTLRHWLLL

Rattus norvegicus [4] = species: Rattus norvegicus; assay: Selectivity for rat NAT over rat SERT
Rattus norvegicus [5] = species: Rattus norvegicus; assay: Selectivity for rat NAT over rat DAT

Chain of Sodium-dependent serotonin transporter (P31652 whole entry): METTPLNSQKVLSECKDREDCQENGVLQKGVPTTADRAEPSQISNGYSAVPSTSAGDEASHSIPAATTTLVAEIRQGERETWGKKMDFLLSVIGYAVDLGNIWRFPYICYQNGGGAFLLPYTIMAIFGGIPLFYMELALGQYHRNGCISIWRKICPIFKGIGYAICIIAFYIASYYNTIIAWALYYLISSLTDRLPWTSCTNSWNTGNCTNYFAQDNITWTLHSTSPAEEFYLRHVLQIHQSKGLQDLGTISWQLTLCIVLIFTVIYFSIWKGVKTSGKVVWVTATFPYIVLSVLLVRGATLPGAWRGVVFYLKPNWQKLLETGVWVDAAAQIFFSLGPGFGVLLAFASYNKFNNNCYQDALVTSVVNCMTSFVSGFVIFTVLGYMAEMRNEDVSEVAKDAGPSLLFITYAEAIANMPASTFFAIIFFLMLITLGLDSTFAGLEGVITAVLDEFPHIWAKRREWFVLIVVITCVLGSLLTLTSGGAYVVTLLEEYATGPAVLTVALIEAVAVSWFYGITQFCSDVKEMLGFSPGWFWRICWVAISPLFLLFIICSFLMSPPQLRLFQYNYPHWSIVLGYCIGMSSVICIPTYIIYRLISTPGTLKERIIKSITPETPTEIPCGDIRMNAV

Structure (SMILES)	Ki [1]	Ki [2]	Ki [3]	Ratio Ki (Rattus norvegicus [4])	Ratio Ki (Rattus norvegicus [5])
CCOc1ccccc1O[C@@H](c1ccc(I)cc1)[C@H]1CNCCO1	0.0582 µM				
CCOc1ccccc1O[C@H](c1ccc(I)cc1)[C@H]1CNCCO1	0.064 µM	0.646 µM	0.716 µM		
CCOc1ccccc1O[C@H](c1ccc(I)cc1)[C@@H]1CNCCO1	0.321 µM				
CCOc1ccccc1O[C@@H](c1ccc(I)cc1)[C@@H]1CNCCO1	0.0538 µM	2.79 µM	1.46 µM	50	25
